# Assay results taken from patent US11512262B2, “Azaphenothiazines and azaphenoxazines as antioxidants” (University of Ottawa, priority 2017, dated 2022).
# Test: hexadecane/PBD-BODIPY co-autoxidation, inhibition by antioxidant
# Conditions: hexadecane/PBD-BODIPY co-autoxidations at 70° C. in PhCl
# Description: FIG. 1 is a graph depicting co-autoxidation of 2.8M hexadecane and 10 μM PBD-BODIPY at 70° C. in PhCl, initiated by 87 mM tBu2O2, and inhibited by 0.6 μM 1, 2, or 9.
# Table 1. […] Relative to other antioxidants, autoxidation was inhibited poorly in the catalytic phase. Dye consumption prevented accurate determination of the stoichiometry.
SMILES,Inhibition rate constant kinh,Turnover in the catalytic phase (footnote a to n),Stoichiometry n
"CCCCCCCc1nc(C)c2c(n1)Nc1ccccc1S2 [Compound 6, 2-Heptyl-4-methyl-1,3-Diazaphenothiazine]",(3.3 ± 0.2) × 10^5 M^−1s^−1,Inefficient turnover,–
"c1ccc2c(c1)Nc1nc(N3CCCC3)ncc1S2 [Compound 8, 2-(Pyrrolidn-1-yl)-1,3-Diazaphenothiazine]",(2.6 ± 0.1) × 10^5 M^−1s^−1,–,6 ± 0.1
"CCCCCCCc1nc(C)c2c(n1)Nc1ccccc1O2 [Compound 5, 2-Heptyl-4-methyl-1,3-Diazaphenoxazine]",(9.0 ± 0.3) × 10^5 M^−1s^−1,–,109 ± 4
"c1ccc2c(c1)Nc1ccncc1S2 [Compound 4, 3-Azaphenothiazine]",(5.9 ± 0.5) × 10^5 M^−1s^−1,–,46 ± 3
"c1ccc2c(c1)Nc1ncccc1O2 [Compound 1, 1-Azaphenoxazine]",(6.8 ± 0.2) × 10^5 M^−1s^−1,–,50 ± 1
"COc1ccc2c(n1)Sc1cccnc1N2 [Compound 9, 3-Methoxy-4,9-Diazaphenothiazine]",(5.6 ± 0.3) × 10^5 M^−1s^−1,–,15 ± 2
"c1ccc2c(c1)Nc1ccncc1O2 [Compound 3, 3-Azaphenoxazine]",(1.3 ± 0.2) × 10^5 M^−1s^−1,–,183 ± 8
"CCN(CC)c1ncc2c(n1)Nc1ccccc1S2 [Compound 7, 2-Diethylamino-1,3-Diazaphenothiazine]",(2.0 ± 0.1) × 10^5 M^−1s^−1,–,4 ± 0.4
"CCN(CC)c1ncc2c(n1)Nc1ccccc1S2 [Compound 10, 2-Diethylamino-1,3-Diazaphenothiazine]",(2.4 ± 0.4) × 10^6 M^−1s^−1,–,11 ± 0.7
"c1ccc2c(c1)Nc1ncccc1S2 [Compound 2, 1-Azaphenothiazine]",(2.8 ± 0.1) × 10^5 M^−1s^−1,–,10 ± 2
